Data reported in patent publication US10632105B2, “Pharmacological stimulation to facilitate and restore standing and walking functions in spinal cord motor disorders” (ECOLE POLYTECHNIQUE FEDERALE DE LAUSANNE (EPFL), priority 2013, dated 2020).
Entries after “also recorded” stand apart in the source; their conditions may differ.

Tests used:
[1] = tested on: cats with a complete spinal cord injury; conditions: spinal / spinalized cats, complete SCI; cited from earlier work
[2] = 8-OHDPAT in combination with α2c stimulation and/or α2a blocking, locomotion; type: in vivo; conditions: 8-OHDPAT in combination with the α2c stimulation or the α2a blocking or both
spinal rats = test: Stepping patterns enabled by EES in spinal rats (complete T7 transection, bipedal treadmill); type: in vivo, rat; conditions: for locomotion / stepping enabled by EES: treadmill 13 cm/s, clonidine 0.4-0.5 mg/kg, BRL-44408 given 5 min before clonidine in the combination
Protocol: Link R E, Desai K, Hein L, Stevens M E, Chruscinski A, Bernstein D, Barsh G S, Kobilka B K. Science. 1996 Aug. 9; 273(5276):803-5).
All procedures have been described in detail previously (see above, Courtine et al., 2009). Briefly, under general anesthesia and aseptic conditions, a partial laminectomy was performed over spinal segments L2 and S1. Teflon-coated stainless-steel wires (AS632; Cooner Wire) were passed under the spinous processes and above the dura mater of the remaining vertebrae between the partial laminectomy sites.
Bipolar intramuscular EMG electrodes using the same wire type as above were inserted bilaterally in the midbelly of the tibialis anterior (TA), midbelly of the vastus lateralis (VL), distal deep compartment of the semitendinosus (St), and medial deep region of the medial gastrocnemius (MG) muscles. All electrode wires were connected to a percutaneous amphenol connector cemented to the rat skull. In the same surgical intervention, the spinal cord was transected completely at a midthoracic level (T7) (Courtine et al., 2009).
All experimental testing followed the same protocol.
In KO mice experiments, only clonidine was injected intraperitoneally.
Three-dimensional video recordings (200 Hz) were made using the motion capture system VICON. Eight infrared television cameras (200 Hz) were used to track the motion of reflective markers attached bilaterally at the iliac crest, greater trochanter, lateral condyle, lateral malleolus, distal end of the fifth metatarsal [metatarsophalangeal joint (MTP)], and tip of the toe (FIG. 1A). Nexus (Vicon) was used to obtain 3-D coordinates of the markers. The body was modeled as an interconnected chain of rigid segments, and joint angles were generated accordingly.
Moments and ground reaction forces in the vertical, antero-posterior, and mediolateral directions were monitored using a biomechanical force plate (2 kHz; HE6X6; AMTI) located below the treadmill belt (FIG. 1A). Vicon BodyBuilder (Vicon) was used to compute the displacements of the center of foot pressures.
EMG signals (2 kHz) were amplified, filtered (10-1000 Hz bandpass), stored, and analyzed off-line to compute the amplitude, duration, and timing of individual bursts (Courtine et al., 2009).
Ten successive step cycles were extracted for both the left and right hindlimbs from a continuous sequence of stepping on the treadmill for each animal under each condition. When no stepping movements were observed, a 10 s period was recorded and analyzed. A total of 129 parameters quantifying gait, kinematics, kinetics, and EMG features were computed for each limb and gait cycle according to methods described in detail previously (Kinematic and EMG determinants in quadrupedal locomotion of a non-human primate (Rhesus). Courtine G, Roy R R, Hodgson J, McKay H, Raven J, Zhong H, Yang H, Tuszynski M H, Edgerton V R. J Neurophysiol. 2005 June; 93(6):3127-45; Recovery of supraspinal control of stepping via indirect propriospinal relay connections after spinal cord injury. Courtine G, Song B, Roy R R, Zhong H, Herrmann J E, Ao Y, Qi J, Edgerton V R, Sofroniew M V. Nat Med. 2008 January; 14(1):69-74; Transformation of nonfunctional spinal circuits into functional states after the loss of brain input. Courtine G, Gerasimenko Y, van den Brand R, Yew A, Musienko P, Zhong H, Song B, Ao Y, Ichiyama R M, Lavrov I, Roy R R, Sofroniew M V, Edgerton V R. Nat Neurosci. 2009 October; 12(10): 1333-42).
These parameters provided a holistic quantification of locomotor patterns ranging from general features of gait to fine details of limb motions and coordination. To allow direct comparisons between the different experimental conditions, all computed variables were normalized to those measured before drug injection (i.e., during locomotion facilitated by dual-site EES alone).
All data are reported as mean values±SEM. Repeated-measures ANOVAs were used to test differences between locomotor parameters recorded before and after drug injections […]

α2a KO mice = conditions: spinal α2a KO mice, EES, clonidine i.p.
Protocol: (§1) The experiments in rats were conducted on adult female Sprague Dawley (300 g body weight). Functional testings in mice were carried out in α2a and α2c knockout animals aged 3-5 months, from both gender, obtained from L. Hein (University of Freiburg, Germany). The generation of the mouse lines lacking α2-adrenoreceptor subtypes has been previously described in detail (Abnormal regulation of the sympathetic nervous system in alpha2A-adrenergic receptor knockout mice. Altman J D, Trendelenburg A U, MacMillan L, Bernstein D, Limbird L, Starke K, Kobilka B K, Hein L. Mol Pharmacol. 1999 July; 56(1):154-61; Targeted inactivation of the gene encoding the mouse alpha 2c-adrenoceptor homolog. Link R E, Stevens M S, Kulatunga M, Scheinin M, Barsh G S, Kobilka B K. Mol Pharmacol. 1995 July; 48(1):48-55; Cardiovascular regulation in mice lacking alpha2-adrenergic receptor subtypes b and c. Link R E, Desai K, Hein L, Stevens M E, Chruscinski A, Bernstein D, Barsh G S, Kobilka B K. Science. 1996 Aug. 9; 273(5276):803-5). To investigate the spinal distribution of the α2 subtypes, we used BAC transgenic mice expressing the reporter protein GFP upstream the coding sequence of the α2a or α2c receptor subtype (strains 014248-UCD and 030098-UCD MMRRC, USA). All procedures were approved by the Veterinary Office of the Canton of Vaud, Switzerland. Animals were housed individually on a 12 h light/dark cycle, with access to food and water ad libitum.
(§2) All tested animals were allowed to recover for 2-5 weeks after lesion to regain stable levels of excitability in the spinal networks to facilitate locomotion via EES (Epidural stimulation induced modulation of spinal locomotor networks in adult spinal rats. Lavrov I, Dy C J, Fong A J, Gerasimenko Y, Courtine G, Zhong H, Roy R R, Edgerton V R. J Neurosci. 2008). An upper body harness was used to position the rats over a treadmill belt and to partially support their body weight during bipedal locomotion (FIG. 1A). An automated, servocontrolled body weight support system (Robomedica) measured and provided the optimal amount of body weight support that each rat needed to step. To facilitate locomotion via EES, monopolar rectangular pulses (0.2 ms duration) were delivered at 40 Hz using two constant-current stimulators (AM Systems) connected to the electrodes positioned at L2 and S1.

α2c KO mice = conditions: spinal α2c KO mice, EES, clonidine i.p.
Protocol: as §1, §2

[3] = tested on: humans with a severe spinal cord injury; conditions: cited from earlier work
rats with complete SCI = rats with complete SCI (Musienko et al. 2011); cited from earlier work
[4] = 2 weeks after lesion, 200 umol/kg, together with EES
[5] = 5 weeks after lesion, with EES, i.p., BRL-44408 4-5 mg/kg
[6] = 5 weeks after lesion, with EES, i.p., BRL-44408 4-5 mg/kg, clonidine 0.4 mg/kg

Structure (SMILES): Clc1ccc2nsnc2c1NC1=NCCN1 [tizanidine]
- locomotion [1]: facilitated expression of locomotion

Structure (SMILES): CCCN(CCC)C1CCc2cccc(O)c2C1 (centres unmarked) [8-OHDPAT]
- locomotion [2]: further facilitation of locomotion

Structure (SMILES): NC1=N[C@@H](Cc2c(F)cccc2F)CO1 [formula (I)]
- locomotion (spinal rats; 2 weeks after lesion, 200 umol/kg, effect exclusively when applied together with spinal cord stimulation (EES)): significantly improved locomotion
- limb amplitude (spinal rats; [4]): increased the limb amplitude
- paw dragging (spinal rats; [4]): reduced the paw dragging

Structure (SMILES): CC1c2ccccc2CN1CC1=NCCN1 (centres unmarked) [BRL-44408, 2-[(4,5-Dihydro-1H-imidazol-2-yl)methyl]-2,3-dihydro-1-methyl-1H-isoindole]
- locomotion / stepping enabled by EES (spinal rats; [5]): improved locomotion; also recorded: moderately improves locomotion
- paw dragging (spinal rats; [6]): reduced paw dragging
- step height (spinal rats; [6]): substantially improved the step height

Structure (SMILES): Clc1cccc(Cl)c1N=C1NCCN1 [clonidine]
- locomotion / stepping enabled by EES (spinal rats; [5]): abolished the stepping enabled by EES
- locomotor function (α2a KO mice): triggered a facilitation of the locomotor function
- locomotor stability (α2a KO mice): improvement of locomotor stability
- movement magnitudes of the hindlimb joints (α2a KO mice): increase of the movement magnitudes of the hindlimb joints
- locomotor abilities (α2c KO mice): significant blocking of the locomotor abilities
- locomotion [1]: marked facilitation of locomotion
- locomotion ([3]; human, clonidine injections (Dietz et al. 1995)): dysfacilitated locomotion
- locomotor EMG activity ([3]; humans with a severe spinal cord injury, low clonidine dosages (Dietz et al., 1995)): suppress or markedly reduce locomotor EMG activity
- stepping (rats with complete SCI): abolished stepping
